Laboratory results taken from patent US20050233413A1, “Neuroprotective polypeptides and methods of use” (priority 2002, published 2005).
Like-named read-outs stand apart in the source and are kept apart here. Where a SMILES comes first, the peptide text is derived from it. Where no end group is shown, it is not given here. [ ]: non-standard residue; d: D form.

Columns and labels:
[1] = test system: V642I-APP, NL-APP, M146L-PS1, N141I-PS2 holoprotein expression in F11 cells; experiment: Immunoblot analysis of transfected FAD gene expression; type: cell-based, rat/mouse hybrid; details: F11 cells treated with peptide
Procedure: Immunoblot analysis was performed as described. For the analysis of transfected FAD gene expression, lysates (20 μg/lane) from cells transfected with each FAD gene (V642I-APP, NL-APP, M146L-PS1, N141I-PS2) were submitted to SDS-PAGE and were electrically blotted to a PVDF sheet. After blocking, the sheet was soaked with antibodies [for APP mutants: 5 μg/ml 22C11 (CHEMICON, Temecula, Calif.); for PS1 mutant: 1/2000 of anti-PS1 N-terminus antibody (CHEMICON) for PS2 mutant: 1/500 of anti-PS2 antibody (Cell Signaling Technology, Beverly, Mass.)] and then with HRP-labeled secondary antibodies. The antigenic bands were visualized by ECL (Amersham Pharmacia Biotech, Uppsala, Sweden).

[2] = test system: F11 cells transfected with V642I-APP, NL-APP, M146L-PS1 or N141I-PS2 cDNA; type: cell-based, rat/mouse hybrid; details: for IC50 / concentration of full cytoprotection against FAD genes: each of V642I-APP; for IC50: read-out: IC50 of suppression of neuronal cell death by FAD genes
From the text: (§1) F11 cells, the hybrid of a rat embryonic-day-13 primary cultured primary neuron and a mouse neuroblastoma cell, are one of the best models for primary cultured neurons as they carry representative characteristics of primary neurons, such as generation of action potentials without differentiation by NGF [22]. They have been used in various studies of is neuronal functions. Using these cells, the underlying mechanisms for cytotoxicity by V642I-APP have well been analyzed. Cytotoxicity by V642 mutants of APP has also been confirmed in multiple different systems. F11 cells were grown in Ham's F-12 (GibcoBRL, Gaithersburg, Md.) plus 18% fetal bovine serum (FBS; Hyclone, Logan, Utah) and antibiotics, as described previously. F11 cells (7×10^4 cell/well in a 6-well plate cultured in Ham's F-12 plus 18% FBS for 12-16 hr) were transfected with plasmids encoding FAD genes by lipofection [FAD cDNA 2 μg, LipofectAMINE 4 μl, PLUS reagent 8 μl (GibcoBRL)] in the absence of serum for 3 hr, and were incubated with Ham's F-12 plus 18% FBS for 2 hr. Then, culture media were changed to Ham's F-12 plus 10% FBS with or without HN peptides, and cells were cultured for an additional 67 hr. Seventy-two hr after transfection, cell mortality was measured by Trypan blue exclusion assay, performed as follows. Cells were suspended by pipetting gently, and 50 μl of 0.4% (finally 0.08%) Trypan blue solution (Sigma, St Louis, Mo.) was mixed with 200 μl of the cell suspension at room temperature. Stained cells were counted within 3 min after the mixture with Trypan blue solution.

[3] = test system: Aβ and four FAD genes (V642I-APP, NL-APP, M146L-PS1, and N141I-PS2); type: cell-based; details: for Full protection (minimal concentration that exerted full cytoprotection): Table 5, marked *
From the text: as §1
(§2) The primary culture of mouse cortical neurons was performed in poly-L-lysine-coated 24-well plates or 96-well plates (Sumitomo Bakelite, Akita, Japan), in the absence of serum and the presence of N2 supplement, as described previously. The purity of neurons by this method was >98%. Prepared neurons (for neurons seeded in 96-well plates: 2.5×10^4 or 5×10^4 cells/well, 100 μl culture medium/well; for neurons seeded in 24-well plates: 1.25×10^5 cells/well, 250 μl culture medium/well) were preincubated with or without 10 μM (in case for the experiment with 10 μM HN) synthetic HN for 16 hr, and treated with 25 μM Aβ in the presence or absence of 10 μM HN for 72 hr, respectively. As primary neurons were vulnerable to transient dryness during medium exchange, we treated neurons with 25 μM Aβ as follows. First, a half volume (50 μl for neurons in 96-well plates; 125 μl for neurons in 24-well plates) of old medium was discarded. Then, the same volume (50 μl for neurons in 96-well plates; 125 μl for neurons in 24-well plates) of prewarned fresh medium containing 10 μM HN and 50 μM Aβ (Aβ was directly resolved) was added to the culture. The Aβ peptides used at 25 μM to induce neurotoxicity formed aggregation in the medium during the cell culture at 37° C. for 72 hr. as described. The WST-8 cell viability assay was performed, using Cell Counting Kit-8 (Wako Pure Chemical Industries, Osaka, Japan), as described previously.
(§3) Calcein assay was performed with Calcein-AM {3′,6′-di-(O-acetyl)-2′,7′-bis [N,N-bis(carboxymethyl)aminomethyl] fluorescein, tetraacetoxymethyl ester; Dojindo}, as described previously. These assays were simultaneously performed in the experiments with neurons seeded in 96-well plates, as follows. Seventy-two hours after Aβ treatment, cells were added with the mixture of 10 μl WST-8 solution and 1 μl of 600 μM Calcein-AM. After 2 hr incubation in a CO2 incubator at 37° C., WST-8 absorbance was measured as OD450. After exchanging the medium to PBS to lower the background, Calcein-specific fluorescence (ex=485 nm, em=535 nm) was observed by fluorescence microscopy or measured by a spectrofluorometer (Wallac1420 ARVOsx Multi Label Counter). […]

[4] = test system: primary cultured neurons treated with 25 μM Aβ1-43; type: cell-based; details: for concentration of full neuroprotection against Aβ1-43 / suppression of Aβ neurotoxicity in the presence of 100 μM EFLIVIKS: 25 μM Aβ1-43; for potency of neuroprotection against Aβ relative to HN: times as high as / higher than authentic HN; for suppression of Aβ neurotoxicity in the presence of 100 μM EFLIVIKS: EF-HN and EF-HNG at 10 μM, WST-8 and Calcein assays
Procedure: (§4) In one assay, transfection with V642I-APP causes cell death in F11 neuronal hybrid cells. In the other, treatment with Aβ peptides causes cell death in primary cultured cortical neurons.
as §2
Calcein assay was performed with Calcein-AM {3′,6′-di-(O-acetyl)-2′,7′-bis [N,N-bis(carboxymethyl)aminomethyl] fluorescein, tetraacetoxymethyl ester; Dojindo}, as described previously. These assays were simultaneously performed in the experiments with neurons seeded in 96-well plates, as follows. Seventy-two hours after Aβ treatment, cells were added with the mixture of 10 μl WST-8 solution and 1 μl of 600 μM Calcein-AM. After 2 hr incubation in a CO2 incubator at 37° C., WST-8 absorbance was measured as OD450. After exchanging the medium to PBS to lower the background, Calcein-specific fluorescence (ex=485 nm, em=535 nm) was observed by fluorescence microscopy or measured by a spectrofluorometer (Wallac1420 ARVOsx Multi Label Counter). Most cell viability data using Calcein assay and WST-8 assay were obtained from neurons seeded at 5×10^4 cells/well in 96-well plates (high-density neurons) and confirmed by both assays with the cells seeded at 2.5×10^4 cells/well (low-density neurons).
Some experiments for Calcein assay were performed with neurons seeded in 24-well plates. […] In most experiments using primary neurons, four independent experiments were performed and the means? S. D. of the results were discussed.

[5] = test system: Aβ and V642I-APP; type: cell-based; details: for Full protection (minimal concentration that exerted full cytoprotection): Table 5, marked **
From the text: as §1, §2, §3

[6] = Apparent stability of peptides in the culture medium; type: physicochemical; details: 72-hr incubation of 10 μM peptides in the cultured medium; data not shown
From the text: The Ser^7 residue plays a role different from that of Ser^14. S7A substitution nullified the action of HN, while Ser^7 racemation had no influence. […] Given the fact that EFLIVIKS or EFLIVKS is the established amino acid sequence to form a dimer and that EFLIVIKS alone had no cytoprotective action, it is most likely that Ser^7 is essential for HN to self-dimerize and that self-dimerization of HN is essential for the action of HN. […] This level of stability alterations could not account for the drastic potentiation of the rescue action by the fusion with EFLIVIKS.

[7] = test system: F11 cells transfected with V642I-APP cDNA; experiment: F11 cell death by V642I-APP transfection (Trypan blue exclusion); type: cell-based
From the text: as §4, §1

MAPRGFSCLLLLT(D-S)EIDLPVKRRA [D-Ser14 HN]
CMV-promoter-driven expression of V642I-APP, NL-APP, M146L-PS1, or N141I-PS2 holoprotein [1]: did not suppress
concentration of full suppression of cell death by FAD mutants ([2]; V642I-APP): 10 nM
cytoprotective action against FAD genes (in words) ([2]; V642I-APP): virtually identical to that of HNG
Full protection (minimal concentration that exerted full cytoprotection) [3]: ˜10 nM
concentration of full neuroprotection against Aβ1-43 [4]: 1 to 10 nM
potency of neuroprotection against Aβ relative to HN [4]: 100-1000 times

EFLIVIKSMAPRGFSCLLLLTSEIDLPVKRRA [EF-HN]
Full protection (minimal concentration that exerted full cytoprotection) [5]: ˜100 nM
amount of peptide relative to the amount at time zero [6]: virtually unaltered
suppression of Aβ neurotoxicity in the presence of 100 μM EFLIVIKS [4]: could fully suppress Aβ neurotoxicity
potency of neuroprotection against Aβ relative to HN [4]: about 100 times
potency of cytoprotection against V642I-APP relative to HN ([7]; times higher than that of HN): about 100 times

CC[C@H](C)[C@H](NC(=O)[C@H](CCC(=O)O)NC(=O)[C@@H](CO)NC(=O)[C@@H](NC(=O)[C@H](CC(C)C)NC(=O)[C@H](CC(C)C)NC(=O)[C@H](CC(C)C)NC(=O)[C@H](CC(C)C)NC(=O)[C@H](CS)NC(=O)[C@H](CO)NC(=O)[C@H](C)NC(=O)CNC(=O)[C@H](C)NC(=O)[C@@H]1CCCN1C(=O)[C@H](C)NC(=O)[C@@H](N)CCSC)[C@@H](C)O)C(=O)N[C@@H](CC(=O)O)C(=O)N[C@@H](CC(C)C)C(=O)N1CCC[C@H]1C(=O)N[C@H](C(=O)N[C@@H](CCCCN)C(=O)N[C@@H](CCCNC(=N)N)C(=O)N[C@@H](CCCNC(=N)N)C(=O)N[C@@H](C)C(=O)O)C(C)C [AGA-(D-Ser14)HN, MAPAGASCLLLLT(D-Ser)EIDLPVKRRA] (H-MAPAGASCLLLLT[dS]EIDLPVKRRA-OH; N-terminus and C-terminus assumed)
CMV-promoter-driven expression of V642I-APP, NL-APP, M146L-PS1, or N141I-PS2 holoprotein [1]: not affected
concentration of full cytoprotection [3]: 100 pM
Full protection (minimal concentration that exerted full cytoprotection) [3]: 100 to 300 pM

EFLIVIKSMAPRGFSCLLLLTGEIDLPVKRRA [EF-HNG]
IC50 [2]: ~0.01 nM
IC50 [3]: 0.01 to 0.1 nM
Full protection (minimal concentration that exerted full cytoprotection) [3]: ˜1 nM
amount of peptide relative to the amount at time zero [6]: virtually unaltered
concentration of full neuroprotection against Aβ1-43 [4]: 1 nM
suppression of Aβ neurotoxicity in the presence of 100 μM EFLIVIKS [4]: could fully suppress Aβ neurotoxicity
IC50 ([4]; both Calcein fluorescence and WST-8 absorbance assays, read-out: IC50 of cytoprotection against Aβ1-43): ~0.1 nM

EFLIVIKSMAPAGASCLLLLTGEIDLPVKRRA [EF-AGA-HNG]
CMV-promoter-driven expression of V642I-APP, NL-APP, M146L-PS1, or N141I-PS2 holoprotein [1]: little or only marginal alteration
concentration of full cytoprotection against FAD genes [2]: 10 pM
Full protection (minimal concentration that exerted full cytoprotection) [3]: ˜10 pM
IC50 [4]: ~0.001 nM
concentration of full neuroprotection against Aβ1-43 [4]: 0.01 nM

MAPRGF(D-Ser)CLLLLT(D-Ser)EIDLPVKRRA (MAPRGF[dS]CLLLLT[dS]EIDLPVKRRA) [D-Ser7/14 HN]
cytoprotective action against FAD genes (in words) ([2]; V642I-APP): virtually identical to those of (D-Ser^14)HN
Full protection (minimal concentration that exerted full cytoprotection) [3]: ˜10 nM

CC[C@H](C)[C@H](NC(=O)[C@H](CCC(=O)O)NC(=O)[C@@H](CO)NC(=O)[C@@H](NC(=O)[C@H](CC(C)C)NC(=O)[C@H](CC(C)C)NC(=O)[C@H](CC(C)C)NC(=O)[C@H](CC(C)C)NC(=O)[C@H](CS)NC(=O)[C@H](CO)NC(=O)[C@H](C)NC(=O)CNC(=O)[C@H](C)NC(=O)[C@@H]1CCCN1)[C@@H](C)O)C(=O)N[C@@H](CC(=O)O)C(=O)N[C@@H](CC(C)C)C(=O)N1CCC[C@H]1C(=O)O [AGA-(D-Ser14)HN17, PAGASCLLLLT(D-Ser)EIDLP] (H-PAGASCLLLLT[dS]EIDLP-OH; N-terminus and C-terminus assumed)
CMV-promoter-driven expression of V642I-APP, NL-APP, M146L-PS1, or N141I-PS2 holoprotein [1]: did not suppress
concentration of full cytoprotection against FAD genes [2]: 100 pM
IC50 [2]: ~0.01 nM
IC50 [3]: 0.01 to 0.1 nM
action potency compared with another peptide (in words) [3]: as potent as AGAD-Ser^14)HN
Full protection (minimal concentration that exerted full cytoprotection) [3]: ˜100 pM

EFLIVIKSMAPRGFSCLLLLTGEIDLPVKKKK [EF-HNG-KKK]
Full protection (minimal concentration that exerted full cytoprotection) [5]: ˜10 nM
potency relative to EF-HNG ([5]; times less potent than EF-HNG): ~10 times
IC50 [4]: ~1 nM
concentration of full neuroprotection against Aβ1-43 [4]: 10 to 100 nM
suppression of Aβ neurotoxicity in the presence of 100 μM EFLIVIKS [4]: could not suppress Aβ neurotoxicity at all
IC50 [7]: ~0.1 nM
concentration of full cytoprotection / complete suppression against V642I-APP ([7]; F11 cells): 10 nM
